Measurements taken from US20200377568A1, “Novel IL-4-/IL-13-derived peptide compounds for the treatment or prevention of neurodegenerative or neuroinflammatory diseases” (Universitätsmedizin der Johannes Gutenberg-Universität Mainz, priority 2018, published 2020).

Experiments:
[1] = tested on: CD4+ T cells; assay: TH2 differentiation of naive T cells; type: cell-based, mouse; settings: different concentrations, FIG. 4B
Description: (§1) A-B: Effects of incubation with IL-4 and different concentrations of Link4 and Link13 on the differentiation of A: CD11b^+ bone marrow-derived macrophages (BMDMs) into F80^+CD206^+ cells, and B: CD4^+ T cells into Gata3^+ cells. C-D: FACS results for different populations of T cells and CD11b^+MHCII^+ monocytes/macrophages/microglia of immune cells isolated from C: spleen and D: central nervous system (CNS) of EAE mice treated with PBS, IL-4 or Link4.
(§2) In order to investigate whether Link4 and Link13 are able to modulate immune cells, in vitro assays were performed on bone marrow-derived macrophages (BDMBs) and on naïve T cells.
For the isolation of T lymphocytes 5-8 week old C57BL/6 mice were sacrificed by cervical dislocation and the spleens and lymph nodes (LN) were isolated and rubbed trough a 100 μm cell strainer into a 50 ml tube with washing medium (5% FCS, 1% P/S,1% HEPES in PBS). After washing, the cells were centrifuged for 5 min at 550 g at 4° C. To remove the red blood cells the […] was re-suspended in lysis buffer followed by centrifugation (5 min, 550 g, 4° C.). The cells were resuspended in MACS buffer and magnetic lymphocyte sorting was performed on ice, using the MidiMACS and QuadroMACS Seperators. A CD4 untouched and CD8 touched cell sort was performed a washing step in ml MACS buffer (5 min, 550 g, 4° C.). Cells were incubated with CD4 T cell biotin antibody cocktail (Miltenyi Biotec) in MACS buffer for 5 min at 4° C. Subsequently, anti-biotin microbeads and CD8 microbeads in MACS buffer was added. CD8 microbeads were added to reduce the possible contamination of CD8^+ lymphocytes. After 10 min of incubation at 4° C. the cells were washed again and resuspended in MACS buffer. MACS columns were pre equilibrated and topped with pre-separation filters (30 μm). A maximum of 300×10^6 cells were added to each column followed by 3 consecutive washing steps with MACS buffer. […] The purity of the magnetic cells sorts was assessed by comparing pre- and post-sort samples by flow cytometry. […]

[2] = tested on: CD11b+ bone marrow-derived macrophages (BMDMs); assay: Differentiation of bone marrow-derived macrophages; type: cell-based, mouse; settings: different concentrations, FIG. 4A
Description: as §1, §2
Murine BMDMs were isolated from adult C57BL/6 mice. The tibia and femur bones were flushed with sterile PBS and the bone marrow was collected in washing medium. After filtering the cell suspension trough a 100 μm nylon mesh, the cells were centrifuged (5 min, 550 g, 4° C.) and resuspended in mouse medium (10% FCS, 1% P/S, 1% L-glutamine, 0.1% β-mercaptoethanol, 1% HEPES in RPMI buffer). For the in vitro generation of BMDMs cells were plated in 6 well-plates and exposed to 20 ng/ml Macrophage […] (M-CSF) for 4 days. For the activation of the cells, Dexametason (5×10^−7M), LPS (10 μg/ml) and IL-4 (10 ng/ml) were added to the culture for the following 3 days.

## RARSEIIGIGSKSIMQMDY (listed as Mus musculus) [Link4]
[1]
  differentiation of CD4+ T cells into Gata3+ cells: did not take place
[2]
  differentiation of CD11b+ BMDMs into F80+CD206+ cells: did not occur
